According to patent US10195204B2, “Methods of treating hemoglobinopathies” (DUKE UNIVERSITY, priority 2011, dated 2019):
“Also recorded” adds a separate entry of the source.

How the values were obtained:
[1] = test system: PMN adhesion to non-activated HUVECs; assay: Adhesion to HUVECs of PMNs co-incubated with epinephrine-stimulated SS RBCs; format: cell-based, human; details: SS RBCs pre-incubated with inhibitor for 1 hour, then 20 nM epinephrine 1 min
Experimental: The cells were then washed prior to admixture with fluorescently-labeled native polymorphonuclear cells (PMNs) obtained from healthy donors at a RBC:PMN ratio of 10:1. After co-incubation for 30 minutes at 37° C., cells mixtures were assayed for their ability to adhere to non-activated HUVECs. […] Downregulation of RBC adhesion receptor activity by targeting ERK may not only decrease SS RBC adhesion to the endothelium but also reduce RBC-stimulated leukocyte activation.

[2] = test system: human SS RBC adhesion in inflamed venules and vaso-occlusion; assay: Intravital microscopy in TNF-α-treated nude mice infused with human SS RBCs treated ex vivo with MEK inhibitor; details: for percentage of venular length occupied by treated SS RBCs: compared to sham
Description: For some in vivo adhesion studies, packed SS RBCs were fluorescently labeled with the dye Dil (Molecular Probes Inc., Eugene, Oreg.), following the manufacturer's instructions. […] Cell morphology was checked by microscopy.

[3] = test system: SS RBC adhesion to TNF-α-activated HUVECs; assay: Flow chamber adhesion of SS RBCs to TNF-α-activated HUVECs; format: cell-based, human
Experimental: Cells were then washed three times with 5 ml PBS with Ca^2+ and Mg^2+. Prior to adhesion assays, washed treated SS RBCs were labeled with PKH 26 red fluorescent cell linker kit (Sigma-Aldrich, St. Louis, Mo.), following the manufacturer's instructions.
Graduated height flow chambers were used to quantify adhesion of RBCs to HUVECs substantially as previously described in detail.^4, 20 In some adhesion studies, slides coated with HUVECs were treated with human recombinant TNF-α at 10 ng/ml for 4 hours. Slides coated with HUVECs treated or not with TNF-α were then washed three times with 20 ml HBSS with 1.26 mM Ca^2+, 0.9 mM Mg^2+ (Gibco, Grand Island, N.Y.) warmed previously to 37° C. and then fit into a variable height flow chamber. The flow chamber was mounted on the stage of an inverted phase contrast microscope (Diaphot, Nikon Inc., Melville, N.Y.) connected to a thermoplate (Tokai Hit Co., Ltd., Japan) set at 37° C. Cells were observed using a video camera (RS photometrics,) attached to the microscope and connected to a Macintosh G4 computer. RBC (3 ml) suspended at 0.2% (vol/vol) in HBSS with Ca^2+, Mg^2+ were infused into the flow chamber and allowed to adhere to the slide for 10 min without flow. Before exposure to flow, a minimum of three fields at each of seven different locations along a line oriented normal to future flow were examined for the total number of fluorescent cells. Fluid flow (HBSS with Ca^2+, Mg^2+) was then started using a calibrated syringe pump. After exposure to flow, the fields were again examined and the number of adherent cells counted. The fraction of adherent cells was presented as (number of cells attached after exposure to flow)/(cells present per field before flow). The wall shear stress was calculated as:
[formula] τw=wall shear stress (dyne/cm^2); Q=volumetric flow rate (cm^3/s); μ is media viscosity, w is the width of the flow channel, and H(x) is the height of the flow chamber as a function of position along the microscope slide. Several investigators have shown that blood flow in small vessels may be continuous, with shear stresses of 1-2 dynes/cm^2, or flow may be intermittent. Our data were obtained using both intermittent and continuous flow conditions.

[4] = test system: cAMP production in SS RBCs
Experimental: Whole cell cAMP accumulation was assayed to assess the functional capacity of the RBC β2-ARs to stimulate the production of cAMP. Washed packed RBCs were pre-treated with IBMX to define basal cAMP accumulation, followed by treatment with epinephrine for 1 min or 30 min, or forskolin. Samples were placed on ice, stimulation was halted, and cells fixed by the addition of 12.5 mM EDTA. Cell samples were boiled, clarified by centrifugation and assayed for cAMP content by radioimmunoassay as described previously.^22 Basal cAMP production was subtracted from the total cAMP produced by the cells. The amounts of cAMP were then normalized as fmol cAMP/10^8 RBCs.

[5] = SS RBCs treated ex vivo with 10 μM inhibitor for 1 hour, n=5

N#CC(=C(/N)Sc1ccccc1N)/C(C#N)=C(\N)Sc1ccccc1N [U0126]
ability of epinephrine-activated SS RBCs to promote neutrophil (PMN) adhesion to HUVECs [1]: significantly decreased | human SS RBC adhesion in inflamed venules [2, 5]: dramatically decreased | vessel obstruction [2, 5]: prevented vessel obstruction | percentage of venular length occupied by treated SS RBCs ([2]; vessels 25 μm in diameter): significantly decreased | percentage of venular length occupied by treated SS RBCs ([2]; vessels with a diameter >25 μm): significantly decreased | SS RBCs adherent to TNF-α-activated HUVECs ([3]; SS RBCs pre-treated with 10 μM U0126): 18±5% | effect on SS RBC adhesion to TNF-α-activated HUVECs ([3]; SS RBCs treated with MEK inhibitor (10 μM; RDEA119 1 and 10 μM)): significantly reduced; also recorded: significantly inhibited

CNC[C@H](O)c1ccc(O)c(O)c1 [epinephrine]
intracellular cAMP ([4]; epinephrine 1 min, about 50% of samples (n=19)): accumulation of high levels of intracellular cAMP | cAMP levels ([4]; epinephrine 30 min): uniformly declined
